Measured values as given in PMC11537199 (RSC Advances, 2024).
Where “and” joins values, the source holds several entries; their conditions need not be identical. Identical values can stand only once. Like-named read-outs stand apart in the source and are kept apart here.

Tests used:
PEDV M^pro = format: biochemical, porcine epidemic diarrhea virus (PEDV); settings: for K M / Km / vmax: pH 7.6
EqCoV M^pro = format: biochemical, equine coronavirus (EqCoV); settings: pH 7.6
[1] = system: coronavirus M^pros (SARS-CoV-2, FIPV, PEDV, EqCoV); format: biochemical
SARS-CoV-2 M^pro [2] = biological target: T1, SARS-CoV-2 M^pro (Severe acute respiratory syndrome coronavirus 2, UniProt P0DTD1)
FIPV M^pro = FIPV M^pro (Feline coronavirus, UniProt Q98VG9); format: biochemical, feline infectious peritonitis virus (FIPV); settings: pH 7.6
Chain of FIPV M^pro (Q98VG9 2904-3205 limits assumed): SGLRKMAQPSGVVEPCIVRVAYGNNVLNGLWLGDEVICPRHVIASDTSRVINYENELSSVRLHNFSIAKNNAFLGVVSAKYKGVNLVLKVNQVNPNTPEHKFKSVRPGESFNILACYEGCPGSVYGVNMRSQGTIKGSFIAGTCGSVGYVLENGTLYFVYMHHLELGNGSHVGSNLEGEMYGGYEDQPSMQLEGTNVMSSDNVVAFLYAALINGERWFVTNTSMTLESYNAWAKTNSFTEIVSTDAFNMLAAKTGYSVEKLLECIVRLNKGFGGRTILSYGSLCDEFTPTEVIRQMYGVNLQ

SARS-CoV-2 M^pro [3] = biological target: T1, SARS-CoV-2 M^pro; settings: pH 7.6
[4] = system: coronaviral M^pros (SARS-CoV-2, FIPV, PEDV, EqCoV); format: biochemical
HRV M^pro = HRV M^pro (Human rhinovirus 14, UniProt P03303); format: biochemical; settings: 500 nM enzyme, substrate 6-850 μM; for vmax: Fig. S29 Michaelis-Menten fit; for vmax / catalytic efficiency (kcat/KM): Bis-Tris pH 7.6, 37 °C; for Km: Table 7, 20 mM Bis-Tris pH 7.6, 1 mM DTT, 0.02% Tween-20, 37 °C, read 60 min; for catalytic efficiency (kcat/KM): Table 8
Chain of HRV M^pro (P03303 1538-1719 limits assumed): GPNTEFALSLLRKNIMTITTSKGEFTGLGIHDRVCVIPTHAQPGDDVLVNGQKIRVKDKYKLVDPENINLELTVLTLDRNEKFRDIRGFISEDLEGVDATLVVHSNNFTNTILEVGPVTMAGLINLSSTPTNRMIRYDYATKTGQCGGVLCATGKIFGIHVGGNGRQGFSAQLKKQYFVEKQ

[5] = system: picornavirus and norovirus M^pros (PV, HRV, EV71, NV); format: biochemical, poliovirus, human rhinovirus, enterovirus A71; settings: cross-test against PV, EV71 and NV M^pro, 500 nM enzyme, Bis-Tris pH 7.6, 37 °C
EV71 M^pro = EV71 M^pro (Human enterovirus 71, UniProt Q66478); format: biochemical, enterovirus A71 (EV71); settings: 500 nM enzyme, substrate 6-850 μM; for catalytic efficiency (kcat/KM): Table 8
Chain of EV71 M^pro (Q66478 1549-1731 limits assumed): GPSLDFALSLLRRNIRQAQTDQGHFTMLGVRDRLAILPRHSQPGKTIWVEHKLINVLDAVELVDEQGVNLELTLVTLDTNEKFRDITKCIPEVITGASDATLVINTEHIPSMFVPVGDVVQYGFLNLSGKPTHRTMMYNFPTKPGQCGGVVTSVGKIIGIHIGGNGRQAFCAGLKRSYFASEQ

NV M^pro = NV M^pro (Norovirus, UniProt Q83883); format: biochemical; settings: 500 nM enzyme, substrate 6-850 μM; for catalytic efficiency (kcat/KM): Table 8
Chain of NV M^pro (Q83883 1101-1281 limits assumed): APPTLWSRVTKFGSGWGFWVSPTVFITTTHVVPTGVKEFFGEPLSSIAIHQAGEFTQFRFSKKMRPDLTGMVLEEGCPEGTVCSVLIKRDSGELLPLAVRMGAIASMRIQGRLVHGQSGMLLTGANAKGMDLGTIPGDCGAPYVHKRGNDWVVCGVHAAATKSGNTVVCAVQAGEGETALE

Polio M^pro = Polio M^pro (Poliovirus type 1, UniProt P03300); settings: pH 7.6
Chain of Polio M^pro (P03300 1566-1748 limits assumed): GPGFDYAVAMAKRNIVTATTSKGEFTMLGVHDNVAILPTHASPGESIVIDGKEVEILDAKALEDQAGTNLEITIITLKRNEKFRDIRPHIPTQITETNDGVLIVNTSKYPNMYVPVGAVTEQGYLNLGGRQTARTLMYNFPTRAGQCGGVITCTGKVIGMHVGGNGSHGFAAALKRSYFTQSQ

[6] = Fig. S31 Michaelis-Menten fit, Bis-Tris pH 7.6, 37 °C
[7] = Table 7, 20 mM Bis-Tris pH 7.6, 1 mM DTT, 0.02% Tween-20, 37 °C, read 60 min
[8] = Fig. S32 Michaelis-Menten fit, Bis-Tris pH 7.6, 37 °C

## 2-Abz-YNSTLQ↓SGY^(NO2)R [PEDV 1]
PEDV M^pro
  k cat: 3.3 ± 0.3 s⁻¹
  K M: 192 ± 26 µM
  Km: 192 ± 26 µM
  vmax: 0.330 ± 0.02 µM/s
EqCoV M^pro
  vmax: 0.4075 µM/s

## 2-Abz-STLAAGY^(NO2)R [(−) FRET]
[1]
  recognition of substrate by coronavirus M^pros: None of the investigated M^pros recognize
SARS-CoV-2 M^pro [2]
  cleavage by SARS-CoV-2 M^pro (LCMS analysis of cleavage products): no cleavage

## 2-Abz-VVTLQ↓SGY^(NO2)R [Blanchard-VV]
FIPV M^pro
  Km: 85 ± 15 µM
  vmax: 0.3231 ± 0.04 µM/s
PEDV M^pro
  Km: 85 ± 10 µM
  vmax: 0.360 ± 0.04 µM/s
EqCoV M^pro
  Km: 371 ± 70 µM
SARS-CoV-2 M^pro [3]
  Km: 64 ± 10 µM
  vmax: 0.2927 ± 0.02 µM/s

## C[S+](C)[O-] [DMSO, dimethyl sulfoxide]
[4]
  decrease of enzyme activity: 42–60%

## Tween-20
[4]
  effect on catalytic activity: do not significantly reduce catalytic activity

## 2-Abz-ETLFQ↓GPVY^(NO2)R [HRFRET]
HRV M^pro
  vmax: 0.5348 ± 0.08 µM/s
  Km: 340 ± 49 µM
  catalytic efficiency (kcat/KM): 3000 ± 285 s⁻¹ M⁻¹
[5]
  recognition of substrate by picornaviral and noroviral main proteases: only specific to rhinovirus M^pro

## 2-Abz-NSTLQ↓SGY^(NO2)R [PEDV 2, truncated version of the PEDV FRET substrate]
PEDV M^pro
  k cat: 2.6 ± 0.2 s⁻¹
  K M: 63 ± 11 µM
  Km: 63 ± 11 µM
  vmax: 0.266 ± 0.02 µM/s
EqCoV M^pro
  vmax: 0.4516 µM/s

## 2-Abz-EFQLQ↓GKMYDY^(NO2)R [NVFRET]
EV71 M^pro; [6]
  Km: 1.1 mM
  vmax: 1.914 ± 0.29 µM/s
EV71 M^pro; [7]
  Km: 1.1 ± 0.201 mM
EV71 M^pro; Bis-Tris pH 7.6, 37 °C
  catalytic efficiency (kcat/KM): 3400 ± 455 s⁻¹ M⁻¹
NV M^pro; [8]
  vmax: 0.4163 ± 0.08 µM/s
NV M^pro; [7]
  Km: 613 ± 188 µM
NV M^pro; Bis-Tris pH 7.6, 37 °C
  catalytic efficiency (kcat/KM): 1300 ± 167 s⁻¹ M⁻¹
Polio M^pro
  vmax: 4.136 ± 1.36 µM/s

## 2-Abz-DFHLQ↓GPY^(NO2)R [NPFRET, shorter, truncated consensus substrate proposed in the literature, reference compound]
[5]
  recognition of substrate by picornaviral and noroviral main proteases: lack of binding

## 2-Abz-EALFQ↓GPPKY^(NO2)R [EV71FRET]
HRV M^pro
  vmax: 0.7709 ± 0.08 µM/s
  Km: 480 ± 80 µM
  catalytic efficiency (kcat/KM): 3200 ± 405 s⁻¹ M⁻¹
EV71 M^pro; [6]
  Km: 1.64 mM
  vmax: 1.029 ± 0.13 µM/s
EV71 M^pro; [7]
  Km: 1.64 ± 0.261 mM
EV71 M^pro; Bis-Tris pH 7.6, 37 °C
  catalytic efficiency (kcat/KM): 1300 ± 138 s⁻¹ M⁻¹
NV M^pro; [8]
  Km: 622 µM
  vmax: 1.410 ± 0.16 µM/s
NV M^pro; [7]
  Km: 620 ± 153 µM
NV M^pro; Bis-Tris pH 7.6, 37 °C
  catalytic efficiency (kcat/KM): 4500 ± 515 s⁻¹ M⁻¹
[5]
  recognition of substrate by picornaviral and noroviral main proteases: somewhat more promiscuous
Polio M^pro
  Km: 1.14 mM and 1.11 mM
  catalytic efficiency (kcat/KM): 2700 ± 315 s⁻¹ M⁻¹
  vmax: 1.366 ± 0.30 µM/s
